Like-named read-outs stand apart in the source and are kept apart here.
Key:
[1] = tested on: influenza strain A/VN/1203/2004 (H5N1); test: microbe, parasite or virus in culture; assay type: cell-based, Influenza A virus (H5N1); settings: Influenza A virus, H5N1, MDCK, 72 h
[2] = tested on: Influenza virus strain A/CA/04/2009 (H1N1); test: organism not typed; assay type: cell-based; settings: MDCK, 72 h, read-out: H1N1 EC50 (@ 50% Via)
[3] = tested on: Madin Darby Canine Kidney (MDCK) cells; test: cells; assay type: cell-based; settings: Canis lupus familiaris, MDCK, read-out: IC50 (toxicity)
[4] = read-out: H5N1 EC50 (@ 50% Via)

COc1ccc(C2NC(=O)NC3=C2CN(C(=O)CN2CCC2)c2ccccc23)cc1Br (stereo not shown) [compound 25411]
EC50 [1, 4]: 0.814 µM | EC50 ([1]; read-out: H5N1 EC50 (Inf Pt)): 0.755 µM | EC50 [2]: 3.7 µM | IC50 [3]: > 40 µM

COc1ccc(C2NC(=O)NC3=C2CN(C(=O)CSCC(O)CO)c2ccccc23)cc1Br (stereo not shown) [compound 25412]
EC50 [1, 4]: 0.893 µM | EC50 ([1]; read-out: H5N1 EC50 (Inf Pt)): 0.848 µM | EC50 [2]: 3.1 µM | IC50 [3]: > 40 µM

COc1ccc(C2NC(=O)NC3=C2CN(C(=O)CSCCO)c2ccccc23)cc1Br (stereo not shown) [compound 25413]
EC50 [1, 4]: 4.4 µM | EC50 ([1]; read-out: H5N1 EC50 (Inf Pt)): 4.5 µM | EC50 [2]: 3.8 µM | IC50 [3]: > 40 µM

COc1ccc(C2NC(=O)NC3=C2CN(C(=O)CNC(=O)CO)c2ccccc23)cc1Br (stereo not shown) [compound 25414]
EC50 [1, 4]: 0.277 µM | EC50 ([1]; read-out: H5N1 EC50 (Inf Pt)): 0.275 µM | EC50 [2]: > 40 µM | IC50 [3]: > 40 µM

— patent publication US20120040966A1, “ANTI-VIRAL COMPOUNDS, TREATMENT, AND ASSAY” (priority 2008, published 2012)
